Results from PubChem BioAssay (NCI).
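All cell lines were grown in 96-well plates and treated with compound for 48 hours. GI50 marks 50% less growth. TGI marks complete inhibition of growth.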

Legend:
Experiment in all cases: NCI tumour cell line growth inhibition, 48 h; in the data active = GI50 below about 0.43 µM; inactive = the rest
[1] = tested on: A498 renal
[2] = tested on: SN12C renal
[3] = tested on: OVCAR-8 ovarian
[4] = tested on: UACC-257 melanoma
[5] = tested on: SF-295 CNS
[6] = tested on: NCI/ADR-RES ovarian
[7] = tested on: CCRF-CEM leukemia
[8] = tested on: OVCAR-4 ovarian
[9] = tested on: SR leukemia
[10] = tested on: SK-MEL-5 melanoma
[11] = tested on: NCI-H522 lung
[12] = tested on: MOLT-4 leukemia
[13] = tested on: SK-OV-3 ovarian
[14] = tested on: HCT-15 colon
[15] = tested on: NCI-H226 lung
[16] = tested on: U251 CNS
[17] = tested on: HOP-92 NSCLC
[18] = tested on: KM12 colon
[19] = tested on: UO-31 renal
[20] = tested on: PC-3 prostate
[21] = tested on: MDA-MB-231 breast
[22] = tested on: COLO 205 colon
[23] = tested on: IGROV1 ovarian
[24] = tested on: NCI-H460 lung
[25] = tested on: UACC-62 melanoma
[26] = tested on: 786-0 renal
[27] = tested on: HT29 colon
[28] = tested on: SNB-75 CNS
[29] = tested on: SK-MEL-28 melanoma
[30] = tested on: EKVX NSCLC
[31] = tested on: DU-145 prostate
[32] = tested on: SW-620 colon
[33] = tested on: HCT-116 colon
[34] = tested on: SNB-19 CNS
[35] = tested on: LOX IMVI melanoma
[36] = tested on: RPMI-8226 leukemia
[37] = tested on: OVCAR-3 ovarian
[38] = tested on: SF-268 CNS
[39] = tested on: TK-10 renal
[40] = tested on: M14 melanoma
[41] = tested on: MDA-MB-435
[42] = tested on: MCF7 breast
[43] = tested on: HOP-62 NSCLC
[44] = tested on: SK-MEL-2 melanoma
[45] = tested on: NCI-H23 lung
[46] = tested on: BT-549 breast
[47] = tested on: HS 578T breast
[48] = tested on: HL-60(TB) leukemia
[49] = tested on: ACHN renal
[50] = tested on: A549 NSCLC
[51] = tested on: K-562 leukemia
[52] = tested on: SF-539 CNS
[53] = tested on: CAKI-1 renal
[54] = tested on: OVCAR-5 ovarian
[55] = tested on: HCC-2998 colon
[56] = tested on: RXF 393 renal
[57] = tested on: T-47D breast
[58] = tested on: MALME-3M melanoma

O=C(N/N=C/c1ccc(F)cc1)c1[nH]c2ccc(I)cc2c1-c1ccccc1
52600 nM: TGI [19]
1350 nM: TGI [33]
39300 nM: TGI [28]
56100 nM: TGI [53]
32500 nM: TGI [23]
769 nM: TGI [6]
> 26900 nM: TGI [30]
3370 nM: TGI [9]
13600 nM: TGI [43]
> 36900 nM: TGI [12]
6820 nM: TGI [21]
> 92300 nM: TGI [17]
55400 nM: TGI [29]
7850 nM: TGI [40]
12500 nM: TGI [55]
> 66800 nM: TGI [15]
2460 nM: TGI [31]
> 58300 nM: TGI [14]
> 87400 nM: TGI [8]
inactive: GI50 [2] 1630 nM | GI50 [3] 971 nM | GI50 [4] 3730 nM | GI50 [8] 702 nM | GI50 [12] 1240 nM | GI50 [13] 464 nM | GI50 [15] 2240 nM | GI50 [16] 484 nM | GI50 [17] 12500 nM | GI50 [19] 1980 nM | GI50 [20] 541 nM | GI50 [21] 1340 nM | GI50 [22] 482 nM | GI50 [23] 450 nM | GI50 [26] 475 nM | GI50 [29] 494 nM | GI50 [30] 470 nM | GI50 [31] 479 nM | GI50 [34] 2310 nM | GI50 [35] 767 nM | GI50 [38] 772 nM | GI50 [39] 19700 nM | GI50 [43] 577 nM | GI50 [44] 10900 nM | GI50 [45] 551 nM | GI50 [46] 2150 nM | GI50 [49] 719 nM | GI50 [50] 760 nM | GI50 [54] 3490 nM | GI50 [55] 888 nM
5040 nM: TGI [24]
824 nM: TGI [48]
> 37900 nM: TGI [16]
10700 nM: TGI [13] | TGI [26]
639 nM: TGI [36]
1500 nM: TGI [5]
22900 nM: TGI [46]
> 82100 nM: TGI [34]
> 80700 nM: TGI [38]
2520 nM: TGI [10]
531 nM: TGI [37]
1340 nM: TGI [52]
> 54500 nM: TGI [50]
active: GI50 [1] 409 nM | GI50 [5] 270 nM | GI50 [6] 274 nM | GI50 [7] 383 nM | GI50 [9] 297 nM | GI50 [10] 417 nM | GI50 [11] 257 nM | GI50 [14] 390 nM | GI50 [18] 385 nM | GI50 [24] 399 nM | GI50 [25] 324 nM | GI50 [27] 350 nM | GI50 [28] 327 nM | GI50 [32] 400 nM | GI50 [33] 325 nM | GI50 [36] 191 nM | GI50 [37] 229 nM | GI50 [40] 372 nM | GI50 [41] 162 nM | GI50 [42] 339 nM | GI50 [47] 235 nM | GI50 [48] 259 nM | GI50 [51] 325 nM | GI50 [52] 338 nM | GI50 [53] 399 nM
> 96600 nM: TGI [4]
> 51200 nM: TGI [3]
2110 nM: TGI [18]
1740 nM: TGI [11]
18600 nM: TGI [42]
> 100000 nM: TGI [2] | TGI [25] | TGI [32] | TGI [35] | TGI [39] | TGI [44] | TGI [49] | TGI [54]
> 86400 nM: TGI [20]
10000 nM: TGI [27]
642 nM: TGI [47]
> 25100 nM: TGI [45]
1700 nM: TGI [22]
348 nM: TGI [41]

COc1ccc(CNc2nc3ccccc3nc2-c2cccs2)cc1
45400 nM: TGI [12]
46300 nM: TGI [53]
43700 nM: TGI [35]
99800 nM: TGI [47]
> 100000 nM: TGI [1] | TGI [3] | TGI [4] | TGI [5] | TGI [6] | TGI [7] | TGI [8] | TGI [9] | TGI [10] | TGI [56] | TGI [11] | TGI [13] | TGI [14] | TGI [15] | TGI [16] | TGI [17] | TGI [18] | TGI [21] | TGI [22] | TGI [23] | TGI [24] | TGI [25] | TGI [26] | TGI [27] | TGI [28] | TGI [57] | TGI [29] | TGI [30] | TGI [31] | TGI [32] | TGI [33] | TGI [36] | TGI [37] | TGI [38] | TGI [39] | TGI [41] | TGI [42] | TGI [43] | TGI [45] | TGI [58] | TGI [48] | TGI [49] | TGI [50] | TGI [51] | TGI [52] | TGI [54] | TGI [55]
71100 nM: TGI [19]
95400 nM: TGI [46]
